Laboratory results: ChEMBL document CHEMBL4257489, “Recent updates in the discovery and development of novel antimalarial drug candidates” (Medchemcomm, 2018)
One block for each compound: values may come before it.

Key:
[1] = Oral bioavailability in Sprague-Dawley rat at 10 mg/kg administered via gavage; type: ADME, organism-based; conditions: in vivo
[2] = test system: Plasmodium berghei; test: Antimalarial activity against Plasmodium berghei infected in mouse by Thompson test; type: functional
[3] = Oral bioavailability in CD1 mouse at 10 mg/kg; type: ADME, organism-based; conditions: in vivo
[4] = Half life in CD1 mouse at 2.5 mg/kg, iv; type: ADME, organism-based; conditions: in vivo
[5] = test system: Plasmodium berghei; test: Antimalarial activity against Plasmodium berghei infected in po dosed mouse measured after 3 doses by 4 day peter's test; type: functional; conditions: 96 h
[6] = test system: Plasmodium berghei; test: Antimalarial activity against Plasmodium berghei infected in mouse assessed as cure rate at 30 mg/kg, po relative to control; type: functional
[7] = test system: Plasmodium berghei; test: Antimalarial activity against GFP transfected Plasmodium berghei ANKA infected in NMRI mouse assessed as suppression of parasitemia at 100 mg/kg, po administered at 4, 24, 48, 72 hrs post infection measured at 96 hrs post infection by FACS analysis relative to control; type: functional
[8] = test system: Plasmodium berghei; test: Antimalarial activity against GFP-fused Plasmodium berghei ANKA infected in NMRI mouse assessed as mouse survival at 100 mg/kg, po administered at 4, 24, 48, 72 hrs post infection; type: functional
[9] = Oral bioavailability in C57BL/6 mouse at 100 mg/kg; type: ADME, organism-based; conditions: in vivo
[10] = test system: Plasmodium falciparum; test: Antimalarial activity against Plasmodium falciparum 3D7 0087/N9 in NODscid IL-2Rgammanull mouse engrafted with parasite infected human erythrocytes assessed as reduction in parasitemia administered via oral gavage starting from day 3 to day 6 post infection measured every 24 hrs during compound dosing by flow cytometric method; type: functional; conditions: 3D7 0087/N9, po
[11] = test system: Plasmodium berghei; test: Antimalarial activity against GFP transfected Plasmodium berghei in ICR mouse engrafted with parasite infected erythrocytes assessed as reduction in parasitemia administered as po qd for 3 to 5 days post infection measured on day 3 to 30 by Giemsa staining-based microscopic method; type: functional
[12] = Oral bioavailability in mouse at 15 mg/kg; type: ADME, organism-based; conditions: in vivo
[13] = Oral bioavailability in Sprague-Dawley rat at 20 +/- 0.2 mg/kg administered via gavage as solution; type: ADME, organism-based; conditions: in vivo
[14] = Oral bioavailability in Sprague-Dawley rat at 17 +/- 0.2 mg/kg administered via gavage as suspension; type: ADME, organism-based; conditions: in vivo
[15] = Oral bioavailability in beagle dog at 3 mg/kg; type: ADME, organism-based, Canis lupus familiaris; conditions: in vivo
[16] = Oral bioavailability in beagle dog at 30 mg/kg; type: ADME, organism-based, Canis lupus familiaris; conditions: in vivo
[17] = test system: hERG; test: Selectivity index, ratio of IC50 for human ERG to IC50 for Plasmodium falciparum NF54; type: toxicity; conditions: read-out: Ratio IC50
[18] = test system: acetylcholinesterase (AChE); test: Selectivity index, ratio of IC50 for human AchE to IC50 for Plasmodium falciparum NF54; type: toxicity; conditions: read-out: Ratio IC50
[19] = Oral bioavailability in rat; type: ADME, organism-based; conditions: in vivo

bioavailability [1]: < 1%
Structure (SMILES): CC1(C)N=C(N)N=C(N)N1OCCCOc1cc(Cl)c(Cl)cc1Cl

Structure (SMILES): COc1cc2[nH]c(C)c(-c3ccc(Oc4ccc(OC(F)(F)F)cc4)cc3)c(=O)c2cc1Cl
ED50 [2]: 0.016 mg/kg

Structure (SMILES): COc1ccc(NC(=O)N2CCCCN3[C@H](CN(C)C)[C@H](c4ccc(C#Cc5ccccc5)cc4)[C@@H]3C2)cc1
bioavailability [3]: 80%
half-life [4]: 32 h

Structure (SMILES): FC1CCN(CCOc2ccc(C3CCC4(CC3)OOC3(OO4)C4CC5CC(C4)CC3C5)cc2)CC1 (centres undefined)
ED50 [5]: 4 mg/kg
Activity [6]: 66%

Structure (SMILES): COc1ccc2c(c1)CC[C@@H]1[C@@H]2CC[C@]2(C)[C@H](NCc3cc4ccccc4cc3O)CC[C@@H]12
Activity [7]: 99.8%
Survival [8]: 27 days
bioavailability [9]: < 5%

bioavailability [12]: > 30%
bioavailability [13]: > 30%
bioavailability [14]: > 30%
bioavailability [15]: > 30%
bioavailability [16]: > 30%
Structure (SMILES): N#Cc1cc(NC(=O)[C@H]2c3ccccc3C(=O)N(CC(F)(F)F)[C@@H]2c2cccnc2)ccc1F [SJ-733]
ED50 [10]: < 5 mg/kg
ED50 [11]: < 5 mg/kg

Structure (SMILES): Cc1nc(Nc2ncc(N3CCN(C)[C@H](C)C3)c(Nc3cc(C)n(C)n3)n2)cc(C2CC2)c1F [SUTIDIAZINE]
selectivity ratio [17]: > 1000
selectivity ratio [18]: > 1000
bioavailability [19]: 80%
